Test results taken from US5140018A, “1,3,2-benzodithiazole-1-oxide compounds” (Abbott Laboratories, priority 1991, dated 1992).
Converted amounts (≈) assume the structure as drawn.

Key:
Type in all cases: cell-based
[1] = system: Candida tropicalis NRRL-Y-112; test: In vitro antifungal MIC, Candida tropicalis NRRL-Y-112; details: NRRLY112; Candida tropicalis NRRL-Y-112; 35°-37° C., 48 hours; read-out: MIC
Procedure: (§1) The in vitro antifungal activity of the compounds of the present invention against a variety of fungiwas determined as follow: Test medium was prepared by dissolving first 5 g of dextrose and then 6.7 g of Bacto Yeast Nitrogen Base® (commercially available from Difco Laboratories) in 100 mL of distilled water. The solution was filter-sterilized and diluted 1:10 with 0.01M pH 8.0 phosphate buffer solution, and the final pH of the medium adjusted to about pH 7.0 when necessary with either 0.1N hydrochloric acid solution of 0.1N sodium hydroxide solution. […] These concentrated stock solutions were diluted to a concentration of 200 μg/mL (twice the highest concentration desired for testing) with the test medium. Amphotericin B, similarly prepared, was used as a reference antifungal agent.
(§2) The test organisms were then inoculated into test tubes containing approximately 3 to 10 mL of test medium and the test tubes incubated overnight at 37° C. A sample of each overnight culture was placed in a test tube and diluted using the test medium until a reading of 95% transmittance was obtained in a conventional UV/visible spectrophotometer set to 560 nm. The adjusted cultures were then diluted 1:50 with test medium. These diluted cultures served as the inocula for the assays which follow and were used within 15 minutes of preparation.
(§3) Next, 2-fold serial dilutions of each test compound in test medium were prepared in a 96-well microtiter plate using calibrated microdiluters attached to an automatic (hand-held) diluter (available from Dynatech Laboratories).
(§4) Using sterile calibrated droppers or a multi-point dispenser, the diluted inoculum suspension was added to each of the wells in the plate. When inoculation was complete, the microtiter tray was covered with a plastic plate sealer to minimize evaporation. After the plate had been sealed, a hole was made above each well with a sterile 26-gauge syringe needle in order to allow gas exchange. If plate sealers were not available, the microtiter trays were stacked in groups of five or less with an empty tray on top. The microtiter trays were then incubated in a humidified chamber at 35°-37° C. for 48 hours or until growth was visible in the growth control wells.
(§5) The minimum inhibitory concentration (MIC) was defined as the lowest concentration of test compound yielding no growth, a slight haze or sparsely isolated colonies on the inoculum spot as compared to the growth control containing no test compound.

Candida albicans CCH 442 = test: In vitro antifungal MIC, Candida albicans CCH 442; details: CCH442; Candida albicans CCH 442; 35°-37° C., 48 hours; read-out: MIC
Procedure: as §1, §2, §3, §4, §5

[2] = system: Cryptococcus albidus ATCC 34140; test: In vitro antifungal MIC, Cryptococcus albidus ATCC 34140; details: Naganishia albida, ATCC34140; Cryptococcus albidus ATCC 34140; 35°-37° C., 48 hours; read-out: MIC
Procedure: as §1, §2, §3, §4, §5

[3] = system: Candida albicans ATCC 62376; test: In vitro antifungal MIC, Candida albicans ATCC 62376; details: ATCC62376; Candida albicans ATCC 62376; 35°-37° C., 48 hours; read-out: MIC
Procedure: as §1, §2, §3, §4, §5

[4] = system: Candida albicans ATCC 10231; test: In vitro antifungal MIC, Candida albicans ATCC 10231; details: ATCC10231; Candida albicans ATCC 10231; 35°-37° C., 48 hours; read-out: MIC
Procedure: as §1, §2, §3, §4, §5

Candida albicans 579A = test: In vitro antifungal MIC, Candida albicans 579A; details: Candida albicans 579A; 35°-37° C., 48 hours; read-out: MIC
Procedure: as §1, §2, §3, §4, §5

Candida kefyr ATCC 28838 = test: In vitro antifungal MIC, Candida kefyr ATCC 28838; details: Kluyveromyces marxianus, ATCC28838; Candida kefyr ATCC 28838; 35°-37° C., 48 hours; read-out: MIC
Procedure: as §1, §2, §3, §4, §5

[5] = system: Candida albicans ATCC 38247; test: In vitro antifungal MIC, Candida albicans ATCC 38247; details: ATCC38247; Candida albicans ATCC 38247; 35°-37° C., 48 hours; read-out: MIC
Procedure: as §1, §2, §3, §4, §5

[6] = system: Torulopsis glabrata ATCC 15545; test: In vitro antifungal MIC, Torulopsis glabrata ATCC 15545; details: Nakaseomyces glabratus, ATCC15545; Torulopsis glabrata ATCC 15545; 35°-37° C., 48 hours; read-out: MIC
Procedure: as §1, §2, §3, §4, §5

[7] = system: Aspergillus niger ATCC 16404; test: In vitro antifungal MIC, Aspergillus niger ATCC 16404; details: ATCC16404; Aspergillus niger ATCC 16404; 35°-37° C., 48 hours; read-out: MIC
Procedure: as §1, §2, §3, §4, §5

| Structure (SMILES) | MIC [1] [µg/mL] | MIC (Candida albicans CCH 442) [µg/mL] | MIC [2] [µg/mL] | MIC [3] [µg/mL] | MIC [4] [µg/mL] | MIC (Candida albicans 579A) [µg/mL] | MIC (Candida kefyr ATCC 28838) [µg/mL] | MIC [5] [µg/mL] | MIC [6] [µg/mL] | MIC [7] [µg/mL] |
| --- | --- | --- | --- | --- | --- | --- | --- | --- | --- | --- |
| CN(C)CCCN1Sc2ccccc2[S+]1[O-] (centres unmarked) [Example 23, 2-(3-(N,N-dimethylamino)-n-propyl)-1,3,2-benzodithiazole-1-oxide] | 50 (≈ 195 µM) | 50 (≈ 195 µM) | 12.5 (≈ 48.8 µM) | 50 (≈ 195 µM) | 50 (≈ 195 µM) | 50 (≈ 195 µM) | 3.12 (≈ 12.2 µM) | 12.5 (≈ 48.8 µM) | 50 (≈ 195 µM) | 12.5 (≈ 48.8 µM) |
| [O-][S+]1c2ccccc2SN1CCN1CCCCC1 (centres unmarked) [Example 24, 2-(2-(1-piperidinyl)ethyl)-1,3,2-benzodithiazole-1-oxide] | 25 (≈ 88.5 µM) | 25 (≈ 88.5 µM) | 12.5 (≈ 44.3 µM) | 25 (≈ 88.5 µM) | 25 (≈ 88.5 µM) | 25 (≈ 88.5 µM) | 0.78 (≈ 2.76 µM) | 12.5 (≈ 44.3 µM) | 12.5 (≈ 44.3 µM) | 3.12 (≈ 11 µM) |
| CCOC(CCCN1Sc2ccccc2[S+]1[O-])OCC (centres unmarked) [Example 25, 2-(4,4-diethoxybutyl)-1,3,2-benzodithiazole-1-oxide] | 12.5 (≈ 39.6 µM) | 1.56 (≈ 4.95 µM) | 12.5 (≈ 39.6 µM) | 6.25 (≈ 19.8 µM) | 6.25 (≈ 19.8 µM) | 3.12 (≈ 9.89 µM) | 3.12 (≈ 9.89 µM) | 1.56 (≈ 4.95 µM) | 6.25 (≈ 19.8 µM) | 3.12 (≈ 9.89 µM) |
| COC(=O)CCCCCCCN1Sc2ccccc2[S+]1[O-] (centres unmarked) [Example 26] | 3.12 (≈ 9.53 µM) | 3.12 (≈ 9.53 µM) | 6.25 (≈ 19.1 µM) | 1.56 (≈ 4.76 µM) | 1.56 (≈ 4.76 µM) | 3.12 (≈ 9.53 µM) | 0.78 (≈ 2.38 µM) | 12.5 (≈ 38.2 µM) | 3.12 (≈ 9.53 µM) | 0.78 (≈ 2.38 µM) |
| [O-][S+]1c2ccccc2SN1C1CC1 (centres unmarked) [Example 27, 2-cyclopropyl-1,3,2-benzodithiazole-1-oxide] | 1.56 (≈ 7.38 µM) | 1.56 (≈ 7.38 µM) | 3.12 (≈ 14.8 µM) | 0.78 (≈ 3.69 µM) | 1.56 (≈ 7.38 µM) | 0.78 (≈ 3.69 µM) | 0.39 (≈ 1.85 µM) | 3.12 (≈ 14.8 µM) | 0.78 (≈ 3.69 µM) | 0.39 (≈ 1.85 µM) |
| [O-][S+]1c2ccccc2SN1C1CCCCCCC1 (centres unmarked) [Example 28, 2-cyclooctyl-1,3,2-benzodithiazole-1-oxide] | 3.12 (≈ 11.1 µM) | 3.12 (≈ 11.1 µM) | 12.5 (≈ 44.4 µM) | 3.12 (≈ 11.1 µM) | 3.12 (≈ 11.1 µM) | 3.12 (≈ 11.1 µM) | 0.39 (≈ 1.39 µM) | 6.25 (≈ 22.2 µM) | 3.12 (≈ 11.1 µM) | 0.78 (≈ 2.77 µM) |
| [O-][S+]1c2ccccc2SN1C1C2CC3CC(C2)CC1C3 (centres unmarked) [Example 29, 2-(2-adamantyl)-1,3,2-benzodithiazole-1-oxide] | 12.5 (≈ 40.9 µM) | 25 (≈ 81.8 µM) | 25 (≈ 81.8 µM) | 6.25 (≈ 20.5 µM) | 6.25 (≈ 20.5 µM) | 12.5 (≈ 40.9 µM) | 3.12 (≈ 10.2 µM) | 50 (≈ 164 µM) | 12.5 (≈ 40.9 µM) | 3.12 (≈ 10.2 µM) |
| [O-][S+]1c2ccccc2SN1c1ccccc1 (centres unmarked) [Example 30, 2-phenyl-1,3,2-benzodithiazole-1-oxide] | 25 (≈ 101 µM) | 25 (≈ 101 µM) | 25 (≈ 101 µM) | 25 (≈ 101 µM) | 25 (≈ 101 µM) | 12.5 (≈ 50.5 µM) | 12.5 (≈ 50.5 µM) | 25 (≈ 101 µM) | 25 (≈ 101 µM) | 12.5 (≈ 50.5 µM) |
| [O-][S+]1c2ccccc2SN1c1ccc2c(c1)OCO2 (centres unmarked) [Example 31] | 50 (≈ 172 µM) | 25 (≈ 85.8 µM) | 50 (≈ 172 µM) | 25 (≈ 85.8 µM) | 12.5 (≈ 42.9 µM) | 25 (≈ 85.8 µM) | 12.5 (≈ 42.9 µM) | 25 (≈ 85.8 µM) | 12.5 (≈ 42.9 µM) | 12.5 (≈ 42.9 µM) |
| [O-][S+]1c2ccccc2SN1Cc1cccs1 (centres unmarked) [Example 34, 2-(2-thienyl)methyl-1,3,2-benzodithiazole-1-oxide] | 50 (≈ 187 µM) | 0.78 (≈ 2.92 µM) | 6.25 (≈ 23.4 µM) | 0.78 (≈ 2.92 µM) | 1.56 (≈ 5.83 µM) | 0.78 (≈ 2.92 µM) | 0.78 (≈ 2.92 µM) | 1.56 (≈ 5.83 µM) | 50 (≈ 187 µM) | 0.39 (≈ 1.46 µM) |
| [O-][S+]1c2ccccc2SN1Cc1ccccc1 (centres unmarked) [Example 35, 2-benzyl-1,3,2-benzodithiazole-1-oxide] | 1.56 (≈ 5.97 µM) | 0.78 (≈ 2.98 µM) | 6.25 (≈ 23.9 µM) | 0.78 (≈ 2.98 µM) | 0.78 (≈ 2.98 µM) | 0.78 (≈ 2.98 µM) | 0.39 (≈ 1.49 µM) | 6.25 (≈ 23.9 µM) | 1.56 (≈ 5.97 µM) | 0.39 (≈ 1.49 µM) |
| [O-][S+]1c2ccccc2SN1Cc1ccc(Cl)cc1Cl (centres unmarked) [Example 36, 2-(2,4-dichlorophenyl)methyl-1,3,2-benzodithiazole-1-oxide] | 3.12 (≈ 9.45 µM) | 6.25 (≈ 18.9 µM) | 25 (≈ 75.7 µM) | 3.12 (≈ 9.45 µM) | 3.12 (≈ 9.45 µM) | 1.56 (≈ 4.72 µM) | 0.78 (≈ 2.36 µM) | 12.5 (≈ 37.8 µM) | 3.12 (≈ 9.45 µM) | 3.12 (≈ 9.45 µM) |
| CN(C)c1ccc(CN2Sc3ccccc3[S+]2[O-])cc1 (centres unmarked) [Example 37, 2-(4-(dimethylamino)phenyl)methyl-1,3,2-benzodithiazole-1-oxide] | 6.25 (≈ 20.5 µM) | 6.25 (≈ 20.5 µM) | 12.5 (≈ 41.1 µM) | 6.25 (≈ 20.5 µM) | 1.56 (≈ 5.12 µM) | 3.12 (≈ 10.2 µM) | 1.56 (≈ 5.12 µM) | 3.12 (≈ 10.2 µM) | 6.25 (≈ 20.5 µM) | 3.12 (≈ 10.2 µM) |
| [O-][S+]1c2ccccc2SN1CCCc1ccccc1 (centres unmarked) [Example 39, 2-(3-phenylpropyl)-1,3,2-benzodithiazole-1-oxide] | 6.25 (≈ 21.6 µM) | 3.12 (≈ 10.8 µM) | 25 (≈ 86.4 µM) | 3.12 (≈ 10.8 µM) | 1.56 (≈ 5.39 µM) | 3.12 (≈ 10.8 µM) | 1.56 (≈ 5.39 µM) | 12.5 (≈ 43.2 µM) | 3.12 (≈ 10.8 µM) | 1.56 (≈ 5.39 µM) |
